{
  "source": "patent US8785430B2",
  "about": "“Compound that can inhibit UBC13-UEV interactions, pharmaceutical compositions and therapeutic uses” (Consejo Superior de Investigaciones Cientificas, priority 2006, dated 2014)",
  "key": {"UBC13-UEV1": {"biological_target": "T1, UBC13-UEV1 (Homo sapiens, UniProt P61088)", "T1 construct": "GST (N); made in house; host or cells: Escherichia coli BL21", "T1 sequence (P61088 1-152)": "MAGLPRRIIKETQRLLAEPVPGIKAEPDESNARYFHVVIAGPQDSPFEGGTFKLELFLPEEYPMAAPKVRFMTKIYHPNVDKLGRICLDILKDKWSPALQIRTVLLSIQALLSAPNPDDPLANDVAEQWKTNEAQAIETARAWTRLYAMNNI", "experiment": "In vitro free polyubiquitin chain formation assay", "format": "biochemical", "protocol": "As described in the Background, K63 type polyubiquitylation catalyzed by UBC13-UEV1 requires the interaction between both subunits of the heterodimer. […] In this assay, the formation of polyubiquitin chains in reactions containing 0.1 μM of E1 enzyme (Boston Biochem), 0.2 μM of UBC13, 0.2 μM of UEV1 (produced as described in Example 4), 117 μM of wild-type ubiquitin (Biomol UW8795) or mutated in all the lysines except the lysine in position 63 (ubiquitin K63) or in position 48 (ubiquitin K48; Boston Biochem), is allowed in a reaction buffer with 50 mM of Tris-HC at pH 7.6, 5 mM of MgCl2 and 0.5 mM of dithiothreitol. For the treatments with compound Ia (Varubin), UBC13 was pre-incubated for 10 minutes at room temperature with 100 μM of the compound before being added to the reaction. The reaction was initiated by means of adding 2 mM of ATP, and it was performed by means of incubating at 37° C. at different times, being stopped by means of adding Laemmli buffer (250 mM Tris-HCl, 10% SDS, 500 mM DTT, 0.5% bromophenol blue and 50% glycerol at pH 6.8) and boiling for 3 minutes. The samples were separated electrophoretically in polyacrylamide-SDS gels and transferred electrophoretically to PVDF membranes."}, "PC-3.Sluc cells tumors": {"tested_on": "PC-3.Sluc cells tumors", "experiment": "PC-3.Sluc tumor xenografts in Balb/c nu/nu mice, light emission (RLUs)", "format": "in vivo", "protocol": "For the purpose of determining if Varubin has an in vivo antitumor activity, its effects in mice having tumors formed from PC-3 cells were analyzed. The experimental tumors were formed by means of the intramuscular inoculation of PC-3.Sluc cells. The latter are PC-3 prostate cells in which they have been integrated by means of transfecting plasmid pRC/CMV-luc, which expresses the firefly (Photinus pyralis) luciferase gene in mammalian cells q. The incubation of the PC-3.luc cells with D-luciferin, a luciferase substrate, produces light, which can be quantified in an absolute manner (number of photons) either by means of a luminometer or by means of detection with a CCD (charge-coupled device) camera. The latter process further allows representing in real time images of the location of the tumor cells in the inoculated animals, as well as the tumor size, since the intensity of the light (number of photons) emitted in the presence of luciferin is directly proportional to the number of PC-3.luc cells.\nFor these studies, 24 male Balb/c nu/nu mice (Charles River Laboratories) of an age of 6 weeks were used. These animals were kept in a pathogen-free environment at all times, having been kept in the animal housing facility for 1 week after they were received, before the experimental handling. After being anesthetized by means of an intraperitoneal (i.p.) injection of a mixture at equal parts of 6 mg/Kg of droperidol (Roche, Basel, Switzerland) and 12 mg/Kg of midazolam (Rovi S.A, Madrid, Spain), intramuscular (i.m.) injections were performed both in the right leg and in the left leg of each animal of 1×10^6 PC-3.Sluc cells, suspended in 100 μL of fetal bovine serum-free culture medium. The development of tumors in the inoculation sites was allowed for 2 weeks, after which a first measurement of photons emitted was made and a first capture of images with an ORCA-2BT Imaging System instrument (Hammamatsu Photonics) provided with a C4742-98-LWG-MOD model CCD camera (cooled at −80° C.) was done at a resolution of 512×512 pixels. […] Four minutes later, photons were detected and quantified for 5 minutes in the instrument described above. […] The quantification and the analysis of photons were performed with the aid of the image analysis program WASABI (Hamamatsu Photonics). […] For the graphic representations, the quantitative data (RLUs) were standardized, for each tumor, in relation to the RLUs of day 0 of treatment.\nThe 24 mice, having luminescent tumors in both legs, were included in 4 experimental groups: (1) Control group, in which an intravenous (i.v.) injection of 100 μL of phosphate buffered saline pH 7.4 (PBS) and 50 μL of intratumoral (i.t.) PBS was performed. […] The light emission of the tumors was analyzed throughout 56 days from the start of the treatment."}, "HeLa cells": {"tested_on": "HeLa cells", "experiment": "CyQuant cell count, sensitization to etoposide", "settings": "HeLa cells, 100 μM of compound Ia"}, "PC-3 cells": {"tested_on": "PC-3 cells", "experiment": "CyQuant cell count, sensitization to doxorubicin", "format": "cell-based, human", "settings": "100 μM of compound Ia", "protocol": "The addition of 100 μM of Ia reduced the IC50 of doxorubicin to 0.1 μM for PC-3 cells and the IC50 of etoposide to 0.04 μM for HeLa cells. Therefore, the treatment with 100 μM of compound Ia causes a sensitization to the cytotoxic effects of doxorubicin of 5 times (PC-3 cells) and a sensitization to the cytotoxic effects of etoposide of 30 times (HeLa cells)."}},
  "data": [
    {"smiles": "NC(=O)CN(CCc1ccccn1)C(=O)C1CC(=O)N(CCc2ccc(F)cc2)CC(=O)N1CCc1ccc(F)cc1", "note": "(centres unmarked) [Ia, N-aminocarbamoylmethyl-N-(2′-(2″pyridyl)ethyl)-1,4-bis[2′-(4″-fluorophenyl)ethyl]-3,7-dioxo-[1,4]diazepane-5-carboxamide]", "values": [
      {"measurement": "type of inhibition of the enzymatic activity of UBC13-UEV1", "setting": "UBC13-UEV1; 100 μM, slopes of the curves", "value": "competitive type"},
      {"measurement": "inhibition of polyubiquitylation with ubiquitin K63 as substrate", "setting": "UBC13-UEV1; 100 μM, ubiquitin K63", "value": "efficiency similar to when the substrate is wild-type ubiquitin"},
      {"measurement": "rate of generation of polyubiquitylated forms", "setting": "UBC13-UEV1; UBC13 pre-incubated with 100 μM, wild-type ubiquitin", "value": "lower rate of generation of polyubiquitylated forms"},
      {"measurement": "antitumor activity in tumors transplanted in nu/nu mice", "setting": "PC-3.Sluc cells tumors; 100 μM, intramuscular injection", "value": "shows antitumor activity"},
      {"measurement": "tumor growth (RLUs)", "setting": "PC-3.Sluc cells tumors; Varubin alone, 100 μM in 50 μL of PBS, i.t./i.m., twice a week, 56 days", "value": "very limited growth"},
      {"measurement": "tumor growth (RLUs), combined treatment", "setting": "PC-3.Sluc cells tumors; doxorubicin i.v. 5 mg/Kg once a week plus Varubin 100 μM twice a week, 56 days", "value": "did not grow significantly"},
      {"measurement": "sensitization to the cytotoxic effects of etoposide", "setting": "HeLa cells", "value": 30, "unit": "times"},
      {"measurement": "sensitization to the cytotoxic effects of doxorubicin", "setting": "PC-3 cells", "value": 5, "unit": "times"}
    ]}
  ]
}
